Test system: MV-4-11 cells
Test: Gene expression microarray analysis (Affymetrix PrimeView) and GSEA
Type: cell-based, human
Settings: ProbeSet 11717523_x_at; LIST B

Nc1ncn([C@@H]2O[C@H](CO)[C@@H](O)[C@H]2O)c(=O)n1 [azacitidine]
RFU, TMEM50B: 81.58 RFU

From PMC5218480 (PLoS ONE, 2017)
